Experimental data reported in ChEMBL document CHEMBL3414474, “Design and synthesis of piperidine derivatives as novel human heat shock protein 70 inhibitors for the treatment of drug-resistant tumors” (Eur J Med Chem, 2015).
Active and inactive are the calls of the source. The rule behind the calls is not given here.

How the values were obtained:
Homo sapiens = species: Homo sapiens; assay: Inhibition of HSP70 (unknown origin) at 200 uM pre-incubated for 30 mins followed by ATP addiction and measured after 3 hrs by malachite green reagent based colorimetric assay
[1] = Growth inhibition of human BT474 cells at 5 uM incubated for 72 hrs by ATP detection based luminescent assay; format: functional; conditions: BT-474, 72 h, read-out: GI
BGC-823 = assay: Growth inhibition of human BGC823 cells at 0.016 to 4 uM incubated for 72 hrs by ATP detection based luminescent assay; format: functional, cell-based
[2] = Growth inhibition of human SK/LapR1.0 cells at 5 uM incubated for 72 hrs by ATP detection based luminescent assay; format: functional; conditions: read-out: GI
A549 = assay: Growth inhibition of human A549 cells at 0.016 to 4 uM incubated for 72 hrs by ATP detection based luminescent assay; format: functional, cell-based
MRC5 = assay: Growth inhibition of human MRC5 cells at 0.016 to 4 uM incubated for 72 hrs by ATP detection based luminescent assay; format: cell-based; conditions: mrc5, 72 h
[3] = Growth inhibition of human WI38 cells at 0.016 to 4 uM incubated for 72 hrs by ATP detection based luminescent assay; format: cell-based; conditions: wi-38, 72 h
[4] = Growth inhibition of human BT474 cells incubated for 72 hrs by ATP detection based luminescent assay; format: functional, cell-based; conditions: BT-474, 72 h
NCI-H460 = assay: Growth inhibition of human H460 cells at 0.016 to 4 uM incubated for 72 hrs by ATP detection based luminescent assay; format: functional, cell-based
Huh-7 = assay: Growth inhibition of human HuH7 cells at 0.016 to 4 uM incubated for 72 hrs by ATP detection based luminescent assay; format: functional, cell-based
COLO 205 = assay: Growth inhibition of human COLO205 cells at 0.016 to 4 uM incubated for 72 hrs by ATP detection based luminescent assay; format: functional, cell-based
ASPC1 = assay: Growth inhibition of human AsPC1 cells at 0.016 to 4 uM incubated for 72 hrs by ATP detection based luminescent assay; format: functional, cell-based
[5] = Growth inhibition of human BT/LapR1.0 cells incubated for 72 hrs by ATP detection based luminescent assay; format: functional
HepG2 = assay: Growth inhibition of human HepG2 cells at 0.016 to 4 uM incubated for 72 hrs by ATP detection based luminescent assay; format: functional, cell-based
[6] = Growth inhibition of human BT/LapR1.0 cells at 5 uM incubated for 72 hrs by ATP detection based luminescent assay; format: functional; conditions: read-out: GI
MDA-MB-453 = assay: Growth inhibition of human MDA-MB-453 cells at 5 uM incubated for 72 hrs by ATP detection based luminescent assay; format: functional; conditions: MDA-MB-453, 72 h, read-out: GI
MDA-MB-361 = assay: Growth inhibition of human MDA-MB-361 cells at 5 uM incubated for 72 hrs by ATP detection based luminescent assay; format: functional; conditions: MDA-MB-361, 72 h, read-out: GI
HT-29 = assay: Growth inhibition of human HT-29 cells at 0.016 to 4 uM incubated for 72 hrs by ATP detection based luminescent assay; format: functional, cell-based
[7] = Growth inhibition of human SKBR3 cells at 5 uM incubated for 72 hrs by ATP detection based luminescent assay; format: functional; conditions: SK-BR-3, 72 h, read-out: GI
MIA PaCa-2 = assay: Growth inhibition of human MIAPaCa2 cells at 0.016 to 4 uM incubated for 72 hrs by ATP detection based luminescent assay; format: functional, cell-based
NCI-N87 = assay: Growth inhibition of human NCI-N87 cells at 0.016 to 4 uM incubated for 72 hrs by ATP detection based luminescent assay; format: functional, cell-based
Mus musculus [8] = assay: Acute toxicity in male KM mouse assessed as induction of organ abnormalities mortality at 520 to 1555 mg/kg dosed as single oral gavage measured during day 1 to day 14 post dose; format: organism-based; design: dose 520-1555 mg/kg, route oral; conditions: in vivo
Mus musculus [9] = assay: Acute toxicity in female KM mouse assessed as mouse mortality at 1296 mg/kg dosed as single oral gavage measured during day 1 to day 14 post dose; format: organism-based; design: dose 1296 mg/kg, route oral; conditions: in vivo
Mus musculus [10] = assay: Acute toxicity in male KM mouse assessed as mouse mortality at 1080 mg/kg dosed as single oral gavage measured during day 1 to day 14 post dose; format: organism-based; design: dose 1080 mg/kg, route oral; conditions: in vivo
Mus musculus [11] = assay: Acute toxicity in female KM mouse assessed as mouse mortality at 1555 mg/kg dosed as single oral gavage measured after 5 mins during day 1 to day 14 post dose; format: organism-based; design: dose 1555 mg/kg, route oral; conditions: in vivo
Mus musculus [12] = assay: Acute toxicity in female KM mouse assessed as mouse mortality at 520 mg/kg dosed as single oral gavage measured during day 1 to day 14 post dose; format: organism-based; design: dose 520 mg/kg, route oral; conditions: in vivo
Mus musculus [13] = assay: Acute toxicity in female KM mouse assessed as induction of organ abnormalities mortality at 520 to 1555 mg/kg dosed as single oral gavage measured during day 1 to day 14 post dose; format: organism-based; design: dose 520-1555 mg/kg, route oral; conditions: in vivo
[14] = Binding affinity to human HSP70 at 25 degC by surface plasmon resonance assay
Mus musculus [15] = assay: Acute toxicity in male KM mouse assessed as mouse mortality at 520 mg/kg dosed as single oral gavage measured during day 1 to day 14 post dose; format: organism-based; design: dose 520 mg/kg, route oral; conditions: in vivo
Mus musculus [16] = assay: Acute toxicity in male KM mouse assessed as mouse mortality at 1555 mg/kg dosed as single oral gavage measured after 5 mins during day 1 to day 14 post dose; format: organism-based; design: dose 1555 mg/kg, route oral; conditions: in vivo
Mus musculus [17] = assay: Acute toxicity in female KM mouse assessed as mouse mortality at 625 mg/kg dosed as single oral gavage measured during day 1 to day 14 post dose; format: organism-based; design: dose 625 mg/kg, route oral; conditions: in vivo

Structure (SMILES)	inhibition (Homo sapiens) [%]	inhibition of growth at 5 µM [1] [%]	growth inhibition (GI) (BGC-823)	inhibition of growth at 5 µM [2] [%]	growth inhibition (GI) (A549)	growth inhibition (GI) (MRC5)	growth inhibition (GI) [3]	IC50 [4] [nM]	growth inhibition (GI) (NCI-H460)	growth inhibition (GI) (Huh-7)	growth inhibition (GI) (COLO 205)	growth inhibition (GI) (ASPC1)	IC50 [5] [nM]	growth inhibition (GI) (HepG2)	inhibition of growth at 5 µM [6] [%]	inhibition of growth at 5 µM (MDA-MB-453) [%]	inhibition of growth at 5 µM (MDA-MB-361) [%]	growth inhibition (GI) (HT-29)	inhibition of growth at 5 µM [7] [%]	Kd [14] [nM]	further results
CSc1ncc(CN2CCC(N(C)Cc3ccc(Cl)cc3Cl)CC2)s1	6.21	70	–	–	–	–	–	–	–	–	–	–	–	–	–	–	–	–	–	–	–
CSc1nccc(N2CCC(N(C)Cc3c(Cl)cccc3Cl)CC2)n1	12.8	73.1	Active	71	Active	Non-toxic	Non-toxic	780	Active	Active	Active	Active	700	Active	70	79.2	53.2	Active	85.9	–	growth inhibition (GI) (MIA PaCa-2): Active; growth inhibition (GI) (NCI-N87): Active
COc1nccc(N2CCC(N(C)Cc3ccccc3Cl)CC2)n1	6.11	36.7	–	35.8	–	–	–	–	–	–	–	–	–	–	28.6	60.8	45.1	–	41.4	–	–
CSc1nccc(N2CCC(N(C)Cc3ccccc3Cl)CC2)n1	11.6	21.3	Active	34.2	Active	Non-toxic	Non-toxic	1990	Active	Active	Active	Active	1700	Active	17.5	45.3	36.2	Active	22.2	–	growth inhibition (GI) (MIA PaCa-2): Active; growth inhibition (GI) (NCI-N87): Active
CSc1nccc(N2CCC(N(C)Cc3c(F)cccc3Cl)CC2)n1	20.4	–	Active	–	Active	Non-toxic	Non-toxic	1040	Active	Active	Active	Active	940	Active	–	–	–	Active	–	–	growth inhibition (GI) (MIA PaCa-2): Active; growth inhibition (GI) (NCI-N87): Active
CSc1nccc(N2CCC(N(C)Cc3ccccc3C#N)CC2)n1	16.7	74.2	–	80.7	–	–	–	–	–	–	–	–	–	–	68.1	68.7	64.1	–	87.6	–	–
CSc1nccc(N2CCC(N(C)Cc3ccc(C#N)cc3)CC2)n1	8.14	75.5	Active	86.1	Active	Non-toxic	Non-toxic	1410	Active	Active	Active	Active	1470	Active	76.2	82.4	46.9	Active	83.4	246	Activity (Mus musculus [8]): Non-toxic; Activity (Mus musculus [9]): Toxic; Activity (Mus musculus [10]): Toxic; Activity (Mus musculus [11]): Toxic; Activity (Mus musculus [12]): Non-toxic; Activity (Mus musculus [13]): Non-toxic; Activity (Mus musculus [15]): Non-toxic; Activity (Mus musculus [16]): Toxic; Activity (Mus musculus [17]): Non-toxic; growth inhibition (GI) (MIA PaCa-2): Active; growth inhibition (GI) (NCI-N87): Active
CSc1ncc(CN2CCC(N(C)Cc3cccc(Cl)c3)CC2)s1	–	–	–	7.3	–	–	–	–	–	–	–	–	–	–	–	–	–	–	–	245	–
CSc1ncc(CN2CCC(N(C)Cc3ccc(C)cc3)CC2)s1	10.6	–	–	–	–	–	–	–	–	–	–	–	–	–	–	–	–	–	–	200	–
N#Cc1ccc(COC[C@H]2O[C@@H](n3c(NCc4ccc(Cl)c(Cl)c4)nc4c(N)ncnc43)[C@H](O)[C@@H]2O)cc1	43	–	–	–	–	–	–	–	–	–	–	–	–	–	–	–	–	–	–	206	–
CSc1nccc(N2CCC(N(C)Cc3ccc(F)cc3)CC2)n1	7.73	–	–	–	–	–	–	–	–	–	–	–	–	–	–	–	46	–	–	204	–
CN(Cc1ccc(C#N)cc1)C1CCN(Cc2cnc(Cl)s2)CC1	11.3	–	–	7.5	–	–	–	–	–	–	–	–	–	–	–	–	–	–	–	–	–
COc1nccc(N2CCC(N(C)Cc3ccc(F)cc3)CC2)n1	–	–	–	9	–	–	–	–	–	–	–	–	–	–	–	–	–	–	–	281	–
CSc1nccc(N2CCC(N(C)Cc3ccc(Cl)cc3Cl)CC2)n1	8.28	–	Active	–	Active	Non-toxic	Non-toxic	1620	Active	Active	Active	Active	1680	Active	–	–	–	Active	–	–	growth inhibition (GI) (MIA PaCa-2): Active; growth inhibition (GI) (NCI-N87): Active
